The record followed here is patent US9192597B2, “Composition for inhibiting vascular aging comprising syringaresinol” (AMOREPACIFIC CORPORATION, priority 2011, dated 2015).

The subject of one test is SIRT1 gene. Nature of the test: SIRT1 gene expression promoting effect in aged human vascular endothelial cells (RT-PCR). The test is classed as cell-based. Conditions: aged human vascular endothelial cells (14 PDL to 40 PDL), 20, 50 or 100 μM every other day, vs DMSO; FIG. 2. The protocol:
The SIRT1 gene expression promoting effect of syringaresinol in aged human vascular endothelial cells was evaluated as follows.
Human vascular endothelial cells purchased from Lonza (Walkersville, Md., USA) were cultured using the endothelial cell growth medium EGM-2 SingleQuots (Lonza) in a 5% CO2 incubator until 70% confluency. […] The population doubling level (PDL) was calculated according to the following equation for each generation until the cell growth was stopped. The PDL value is higher in aged cells. PDL=(Log10 Y−Log10 X)/Log10 2
Y: number of cells at the end of the generation
X: number of cells at the beginning of the generation
14 PDL cells were treated with syringaresinol dissolved in DMSO at a concentration of 20, 50 or 100 μM every other day while inducing aging to 40 PDL cells. The cells of a negative control group were treated with DMSO of 1/1000 of the volume of the medium. The cells treated with each sample were washed 2 times with cold PBS and RNA was extracted using TRIzol reagent (Invitrogen). cDNA was synthesized from the extracted RNA (1 μg/μL) using a reverse transcription system (Promega). Subsequently, the expression pattern of the SIRT1 and GAPDH genes was measured using the synthesized cDNA and predesigned primers and probes (Applied Biosystems; SIRT1, Hs01009006_m1; GAPDH, Hs99999905_m1). […]

The test system of test [1] is aged vascular endothelial cells (SA-β-gal). The test is described as follows: Aging marker SA-β-gal staining in aged vascular endothelial cells (Cellular Senescence Assay kit). Particulars: 50 μM, compared to cells treated only with DMSO. Format: cell-based, human. The protocol: The aging of vascular endothelial cells was induced by treating with 50 μM syringaresinol in substantially the same manner as in Test Example 1. The aged cells were washed with PBS and stained at 37° C. for 16 hours using a fixative and a stain provided together with the Cellular Senescence Assay kit (Cell Biolabs, Inc., San Diego, Calif., USA). Next day, the cells were washed with PBS, overlaid with 20% glycerol solution and observed under a microscope. The number of the cells stained green was counted and the activity of the aging marker SA-β-gal was determined.

The test system of the next test is telomerase. Nature of the test: Telomerase activity in aged vascular endothelial cells (TeloTAGGG telomerase PCR ELISA Plus kit). The test is classed as cell-based, human. Conditions: 50 μM, compared to cells treated only with DMSO, FIG. 5. On the procedure: The aging of vascular endothelial cells was induced by treating with 50 μM syringaresinol or DMSO as control in substantially the same manner as in Test Example 1. The aged cells were washed with PBS and lysed using lysis buffer (Sigma), and the obtained protein was quantitated. Telomerase activity was evaluated using the TeloTAGGG telomerase PCR ELISA Plus kit (Roche Applied Science, Indianapolis, Ind., USA).

In a further test the test system is eNOS. The test is described as follows: eNOS protein expression in aged vascular endothelial cells (Western blot). The test is classed as cell-based, human. Conditions: 50 μM, vs DMSO and young cells, FIG. 6. The protocol: (§1) In order to evaluate whether syringaresinol can restore the declined function of aged vascular cells to that of young vascular cells, the aging of vascular endothelial cells was induced by treating with 50 μM syringaresinol or DMSO as control in substantially the same manner as in Test Example 1. […] As a result, cardiovascular diseases such as arteriosclerosis can occur easily. The cells treated with syringaresinol or DMSO were washed with PBS and lysed with lysis buffer (Sigma), and the supernatant was recovered. Then, protein present in the supernatant was quantitated using Protein Dye Reagent™ (Bio-Rad). 100 μg of the obtained protein was fractionated by size by electrophoresing on 8% SDS-PAGE and transferred onto PVDF membrane (Bio-Rad) for 12 hours with 50 V. Then, the membrane was blocked for 1 hour with 5% non-fat milk and treated with anti-eNOS, anti-PAI-1 and anti-actin antibodies, as primary antibodies, and horse radish peroxidase (HRP)-conjugated anti-rabbit IgG (Amersham) as secondary antibody, and reacted using the enhanced chemiluminescence (ECL) kit (Amersham). The reacted PVDF membrane exposed to X-ray Fuji film and developed to investigate the protein expression level.

The subject of another test is PAI-1. Nature of the test: PAI-1 protein expression in aged vascular endothelial cells (Western blot). The test is classed as cell-based, human. Conditions: 50 μM, vs DMSO and young cells, FIG. 6. The protocol:
as §1
(In general: Immunoblotting shows a protein as a band on a membrane.)

Take `COc1cc(C2OCC3C(c4cc(OC)c(O)c(OC)c4)OCC23)cc(OC)c1O` (stereo not drawn) [syringaresinol]: the SIRT1 gene expression result in the test on SIRT1 gene is “increases the decreased SIRT1 expression in aged vascular endothelial cells in a concentration-dependent manner”. Besides, in test [1] (FIG. 3 and 4), the “number of green-stained (SA-β-gal) cells” value is on record as “remarkably smaller number of green-stained cells”. Further, in test [1] (FIG. 4), the “decrease of SA-β-gal activity” value was roughly 50%. Besides, the “increase of telomerase activity” value in the test on telomerase is on record as “about 30%”. The eNOS expression entry in the test on eNOS is listed as “increased eNOS expression comparable to that of young cells”. In the test with PAI-1, the PAI-1 expression entry is recorded as “decreased PAI-1 expression comparable to that of young cells”.
